# In PubChem BioAssay (NCI):
# Several values for one entry are separate records, joined by “and”; a condition that tells them apart may be missing. Equal values may be shown once.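 Tested at 5 concentrations; 48 h exposure; 96-well plates; endpoints linearly interpolated, else capped at highest concentration. GI50 = concentration required for 50% inhibition of growth. TGI: total growth inhibition.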
# Assays:
# Experiment in all cases: inhibition of tumour cell growth, NCI panel, 48 h
# [1] = test system: SN12C renal
# [2] = test system: SK-MEL-28 melanoma
# [3] = test system: HS 578T breast
# [4] = test system: CCRF-CEM leukemia
# [5] = test system: NCI-H522 lung
# [6] = test system: MCF7 breast
# [7] = test system: M14 melanoma
# [8] = test system: NCI-H226 lung
# [9] = test system: SF-295 CNS
# [10] = test system: T-47D breast
Compound,GI50 [1],TGI [1],GI50 [2],TGI [2],GI50 [3],TGI [3],GI50 [4],TGI [4],GI50 [5],TGI [5],GI50 [6],TGI [6],GI50 [7],TGI [7],GI50 [8],TGI [8],GI50 [9],TGI [9],GI50 [10],TGI [10]
COc1ccc(NC(=O)n2nc(/C=C\c3ccc(O)c(OC)c3)cc2/C=C\c2ccc(O)c(OC)c2)cc1,3.05 µM,33.7 µM,3.52 µM,92.7 µM,6.77 µM,61.9 µM,2.34 µM,32.7 µM,1.76 µM,12.7 µM,3.03 µM,17 µM,3.15 µM,41.5 µM,10.7 µM,78.6 µM,6.25 µM,53.2 µM,3.68 µM,25.8 µM
CC(=O)Nc1ccc(/C=C2/NC(=S)N(/C=C3\C(=O)Oc4ccccc4C3=O)C2=O)cc1,,> 100 µM,,> 100 µM,,> 100 µM,,> 100 µM,,> 100 µM,,> 100 µM,,> 100 µM,,> 100 µM,,> 100 µM,,> 100 µM
CN1c2ccccc2S(=O)(=O)n2c(CCc3ccccc3)nnc21,,> 100 µM,,> 100 µM,,> 100 µM,,> 100 µM,,> 100 µM,,> 100 µM,,> 100 µM,,> 100 µM,,> 100 µM,,> 100 µM
COc1cc2ncnc3c2cc1OCCCCCN(C)Cc1ccc(Br)cc1N3,5.45 µM and 1.32 µM,> 100 µM,6.68 µM and 7.54 µM,> 100 µM,10.2 µM and 1.52 µM,> 100 µM,10.2 µM and > 10 µM,> 100 µM,0.851 µM and 0.225 µM,,8.89 µM and 5.35 µM,> 100 µM,1.94 µM and 0.939 µM,> 100 µM,26.4 µM and 7.69 µM,> 100 µM,14.1 µM and 5.13 µM,> 100 µM,0.643 µM and 0.446 µM,85.4 µM and 9.5 µM
Oc1c(CN2CCCC2)cc(CSCc2ccccc2)c2cccnc12,1.69 µM,13.5 µM,1.85 µM,13.6 µM,4.7 µM,25 µM,0.429 µM,10.2 µM,1.14 µM,3.77 µM,0.475 µM,11.3 µM,0.397 µM,2.59 µM,1.11 µM,4.8 µM,2.19 µM,8.13 µM,1.15 µM,8.26 µM
O=C1C(Cl)=C(c2ccc([N+](=O)[O-])cc2)C(=O)c2c(O)cccc21,,10.7 µM,,4.16 µM,,4.13 µM,,> 100 µM,,0.545 µM,,14.2 µM,,3.66 µM,,5.74 µM,,8.19 µM,,5.54 µM
CC12CC=CCC1CCC1C2CCC2(C)C(c3ccc(=O)oc3)CCC12O (centres undefined),0.0378 µM,0.47 µM,0.3 µM,1.37 µM,0.0335 µM,0.473 µM,0.037 µM,0.303 µM,0.0383 µM,0.273 µM,0.0794 µM,0.961 µM,0.113 µM,0.404 µM,0.219 µM,0.595 µM,0.0462 µM,0.25 µM,0.23 µM,0.887 µM
NNS(=O)(=O)c1cc(C(=O)O)cc(C(=O)O)c1,,> 100 µM,,> 100 µM,,> 100 µM,,> 100 µM,,> 100 µM,,> 100 µM,,> 100 µM,,> 100 µM,,> 100 µM,,> 100 µM
